{
  "source": "patent US6680067B2",
  "about": "(priority 2001, dated 2004)",
  "key": {"[1]": {"test": "pharmacokinetics of nalbuphine in beagle plasma after intramuscular injection", "details": "for k01: hydrochloride"}, "[2]": {"test": "pharmacokinetics of nalbuphine in rat plasma after intramuscular injection", "details": "for k01: hydrochloride", "protocol": "Each group consisted of 6 rats and each rat was injected once intramuscularly on the rear leg."}, "Sprague-Dawley rats": {"test_system": "Sprague-Dawley rats", "test": "rat cold ethanol tail-flick test (analgesic effect)", "assay_type": "in vivo", "details": "intramuscular, 25 μM/kg, FIG. 5"}, "[3]": {"details": "Shafer et al. 1991; cited from earlier work"}, "[4]": {"details": "beagle, dog, plasma, im, 5 mg/kg"}, "[5]": {"details": "beagles, i.m., dose 5 mg/kg, n = 5, mean ± S.E."}, "[6]": {"details": "male, Sprague-Dawley, rat, plasma, im, 24 mg/kg"}},
  "note": "Structures can show the parent of a compound that is named as a salt.",
  "data": [
    {"smiles": "Oc1ccc2c3c1O[C@H]1[C@@H](O)CC[C@@]4(O)[C@@H](C2)N(CC2CCC2)CC[C@]314", "note": "[Nalbuphine-HCl, nalbuphine hydrochloride]", "values": [
      {"measurement": "AUC", "setting": "[1]; [4]", "value": "1870 ± 203", "unit": "ng·h/mL"},
      {"measurement": "CL/F", "setting": "[1]; [4]", "value": 46.7, "unit": "mL/min/kg"},
      {"measurement": "Cmax", "setting": "[1]; [4]", "value": "2460 ± 755", "unit": "ng/mL"},
      {"measurement": "MRT", "setting": "[1]; [4]", "value": "2.2 ± 0.5", "unit": "h"},
      {"measurement": "Tmax", "setting": "[1]; [4]", "value": "5.4 ± 2.4", "unit": "min"},
      {"measurement": "half-life", "setting": "[1]; beagle, dog, plasma, im, 5 mg/kg, t1/2, k01, beagles, n = 5, mean ± S.E.", "value": "7.2 ± 4.2", "unit": "min"},
      {"measurement": "half-life", "setting": "[1]; beagle, dog, plasma, im, 5 mg/kg, t1/2, α, beagles, n = 5, mean ± S.E.", "value": "7.8 ± 6.6", "unit": "min"},
      {"measurement": "half-life", "setting": "[1]; beagle, dog, plasma, im, 5 mg/kg, t1/2, β (elimination half-life), beagles, n = 5, mean ± S.E.", "value": "168 ± 54", "unit": "min"},
      {"measurement": "α", "setting": "[1]; [5]", "value": "67.9 ± 29.3", "unit": "h⁻¹"},
      {"measurement": "β", "setting": "[1]; [5]", "value": "0.42 ± 0.15", "unit": "h⁻¹"},
      {"measurement": "k01", "setting": "[1]; beagles, i.m., dose 5 mg/kg, n = 5, mean ± S.E., listed as Nal-HCl", "value": "82.5 ± 43.9", "unit": "h⁻¹"},
      {"measurement": "k01", "setting": "[1]; beagles, i.m., dose 5 mg/kg, n = 5, mean ± S.E., listed as Nalbuphine HCl", "value": "82.5 ± 43.9", "unit": "h⁻¹"},
      {"measurement": "k01", "setting": "[1]; beagles, i.m., dose 5 mg/kg, n = 5, mean ± S.E., listed as nalbuphine hydrochloride", "value": 82.5, "unit": "h⁻¹"},
      {"measurement": "β or k10", "setting": "[2]; Sprague-Dawley rats, i.m., 24 mg/kg (FIG. 7), means ± S.E.", "value": "0.43 ± 0.21", "unit": "h⁻¹"},
      {"measurement": "k01", "setting": "[2]; Sprague-Dawley rats, i.m., 24 mg/kg (FIG. 7), means ± S.E., 24 mg/kg", "value": "12.1 ± 14.1", "unit": "h⁻¹"},
      {"measurement": "k01", "setting": "[2]; Sprague-Dawley rats, i.m., 24 mg/kg (FIG. 7), means ± S.E., listed as nalbuphine hydrochloride, 24 mg/kg", "value": "12.1 ± 14.1", "unit": "h⁻¹"},
      {"measurement": "AUC", "setting": "[2]; [6]", "value": "8040 ± 2880", "unit": "ng·h/mL"},
      {"measurement": "CL/F", "setting": "[2]; [6]", "value": 58.3, "unit": "mL/min/kg"},
      {"measurement": "Cmax", "setting": "[2]; [6]", "value": "2230 ± 669", "unit": "ng/mL"},
      {"measurement": "MRT", "setting": "[2]; [6]", "value": "3 ± 1.2", "unit": "h"},
      {"measurement": "Tmax", "setting": "[2]; [6]", "value": "27 ± 14.4", "unit": "min"},
      {"measurement": "half-life", "setting": "[2]; male, Sprague-Dawley, rat, plasma, im, 24 mg/kg, t1/2, k01, Sprague-Dawley rats, 24 mg/kg (FIG. 7), means ± S.E.", "value": "8.4 ± 9", "unit": "min"},
      {"measurement": "half-life", "setting": "[2]; male, Sprague-Dawley, rat, plasma, im, 24 mg/kg, t1/2, β (elimination half-life), Sprague-Dawley rats, 24 mg/kg (FIG. 7), means ± S.E.", "value": "114 ± 48", "unit": "min"},
      {"measurement": "10% analgesic effect (duration)", "setting": "Sprague-Dawley rats", "value": 2.7, "unit": "h"},
      {"measurement": "50% analgesic effect (duration)", "setting": "Sprague-Dawley rats", "value": 1.2, "unit": "h"}
    ]},
    {"smiles": "Oc1ccc2c(c1)[C@@]13CCCC[C@@]1(O)[C@@H](C2)N(CC1CCC1)CC3", "note": "[butorphanol]", "values": [
      {"measurement": "dose needed to elicit the same analgesic effect", "setting": "[3]", "value": 2, "unit": "mg"}
    ]},
    {"smiles": "CN1CC[C@]23c4c5ccc(O)c4O[C@H]2[C@@H](O)C=C[C@H]3[C@H]1C5", "note": "[morphine]", "values": [
      {"measurement": "dose needed to elicit the same analgesic effect", "setting": "[3]", "value": 10, "unit": "mg"}
    ]}
  ]
}
